Data: ChEMBL document CHEMBL1201861, “Genomics of Drug Sensitity in Cancer screening data, Wellcome Trust Sanger Institute”

What was measured:
Assay in all cases: cells
[1] = system: IST-MES1; assay type: functional, cell-based, Homo sapiens; conditions: Homo sapiens, IST-MES1;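 also: growth inhibition of IST-MES1 cells, measured with a cell viability assay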
Description: SANGER: Inhibition of human IST-MES1 cell growth in a cell viability assay.

[2] = system: MFM-223; assay type: functional, cell-based, Homo sapiens; conditions: Homo sapiens, MFM-223
Description: SANGER: Inhibition of human MFM-223 cell growth in a cell viability assay.

[3] = system: COLO-668; assay type: functional, cell-based, Homo sapiens; conditions: Homo sapiens, COLO-668
Description: SANGER: Inhibition of human COLO-668 cell growth in a cell viability assay.

[4] = system: RPMI-8866; assay type: functional, cell-based; conditions: Homo sapiens
Description: SANGER: Inhibition of human RPMI-8866 cell growth in a cell viability assay.

[5] = system: MLMA; assay type: functional, cell-based, Homo sapiens; conditions: Homo sapiens, MLMA;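 also: growth inhibition of MLMA cells (human), determined through a cell viability readout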
Description: SANGER: Inhibition of human MLMA cell growth in a cell viability assay.

[6] = system: EW-18; assay type: functional, cell-based; conditions: Homo sapiens;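 also: growth inhibition of EW-18 cells, read out by a cell viability assay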
Description: SANGER: Inhibition of human EW-18 cell growth in a cell viability assay.

[7] = system: NCI-H1355; assay type: functional, cell-based, Homo sapiens; conditions: Homo sapiens, NCI-H1355;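 also: growth inhibition of human NCI-H1355 cells, read out by a cell viability assay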
Description: SANGER: Inhibition of human NCI-H1355 cell growth in a cell viability assay.

[8] = system: NCI-H1304; assay type: functional, cell-based; conditions: Homo sapiens;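 also: growth inhibition of the cancer cell line, measured in a cell viability assay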
Description: SANGER: Inhibition of human NCI-H1304 cell growth in a cell viability assay.

[9] = system: COR-L88; assay type: functional, cell-based; conditions: Homo sapiens;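 also: growth inhibition of COR-L88 cells, read out with a cell viability assay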
Description: SANGER: Inhibition of human COR-L88 cell growth in a cell viability assay.

[10] = system: NCI-H23; assay type: functional, cell-based, Homo sapiens; conditions: Homo sapiens, NCI-H23;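 also: cell viability assay measuring growth inhibition of NCI-H23 cells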
Description: SANGER: Inhibition of human NCI-H23 cell growth in a cell viability assay.

[11] = system: NB69; assay type: functional, cell-based, Homo sapiens; conditions: Homo sapiens, NB69;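 also: growth inhibition of NB69 cells, determined by a cell viability assay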
Description: SANGER: Inhibition of human NB69 cell growth in a cell viability assay.

[12] = system: CCRF-CEM; assay type: functional, cell-based; conditions: Homo sapiens;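 also: inhibition of CCRF-CEM cell growth, measured by a cell viability assay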
Description: SANGER: Inhibition of human CCRF-CEM cell growth in a cell viability assay.

[13] = system: HDLM-2; assay type: functional, cell-based; conditions: Homo sapiens;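 also: cell viability assay measuring suppression of HDLM-2 proliferation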
Description: SANGER: Inhibition of human HDLM-2 cell growth in a cell viability assay.

[14] = system: TE-5; assay type: functional, cell-based, Homo sapiens; conditions: Homo sapiens, TE-5;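 also: inhibition of cell growth, read out by a cell viability assay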
Description: SANGER: Inhibition of human TE-5 cell growth in a cell viability assay.

[15] = system: TE-10; assay type: functional, cell-based, Homo sapiens; conditions: Homo sapiens, TE-10;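 also: growth inhibition of TE-10 cells, measured by a cell viability assay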
Description: SANGER: Inhibition of human TE-10 cell growth in a cell viability assay.

[16] = system: IST-MEL1; assay type: functional, cell-based, Homo sapiens; conditions: Homo sapiens, IST-MEL1;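 also: growth inhibition of the cell line, read out with a cell viability assay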
Description: SANGER: Inhibition of human IST-MEL1 cell growth in a cell viability assay.

[17] = system: EW-24; assay type: functional, cell-based; conditions: Homo sapiens;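 also: human EW-24 cancer cell line, growth inhibition read out via a cell viability assay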
Description: SANGER: Inhibition of human EW-24 cell growth in a cell viability assay.

[18] = system: SK-N-FI; assay type: functional, cell-based, Homo sapiens; conditions: Homo sapiens, SK-N-FI;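 also: cell viability assay measuring growth inhibition of human SK-N-FI cells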
Description: SANGER: Inhibition of human SK-N-FI cell growth in a cell viability assay.

[19] = system: NCI-H209; assay type: functional, cell-based; conditions: Homo sapiens;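 also: growth inhibition of human NCI-H209 cells, measured by a cell viability assay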
Description: SANGER: Inhibition of human NCI-H209 cell growth in a cell viability assay.

[20] = system: LNCaP-Clone-FGC; assay type: functional, cell-based, Homo sapiens; conditions: Homo sapiens, LNCaP-Clone-FGC
Description: SANGER: Inhibition of human LNCaP-Clone-FGC cell growth in a cell viability assay.

[21] = system: NB17; assay type: functional, cell-based; conditions: Homo sapiens;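 also: growth inhibition of NB17 cells, read out with a cell viability assay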
Description: SANGER: Inhibition of human NB17 cell growth in a cell viability assay.

[22] = system: UACC-257; assay type: functional, cell-based, Homo sapiens; conditions: Homo sapiens, UACC-257
Description: SANGER: Inhibition of human UACC-257 cell growth in a cell viability assay.

[23] = system: EW-1; assay type: functional, cell-based, Homo sapiens; conditions: Homo sapiens, EW-1;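 also: growth inhibition of the human EW-1 cell line, read out by a cell viability assay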
Description: SANGER: Inhibition of human EW-1 cell growth in a cell viability assay.

[24] = system: NB6; assay type: functional, cell-based, Homo sapiens; conditions: Homo sapiens, NB6;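 also: growth inhibition of NB6 cells, read out by a cell viability assay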
Description: SANGER: Inhibition of human NB6 cell growth in a cell viability assay.

[25] = system: QIMR-WIL; assay type: functional, cell-based; conditions: Homo sapiens;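 also: growth inhibition of QIMR-WIL cells, read out with a cell viability assay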
Description: SANGER: Inhibition of human QIMR-WIL cell growth in a cell viability assay.

Question: `C=C1C(=O)O[C@@H]2C3O[C@]3(C)CC/C=C(\C)CC[C@@H]12` (stereo not given in full) was tested. Which IC50 [1] did it give?
Answer: > 5 µM

Question: What about the IC50 [2] of the same compound?
Answer: > 5 µM

Question: And the IC50 [3]?
Answer: > 5 µM

Question: And the IC50 [4]?
Answer: > 5 µM

Question: And the IC50 [5]?
Answer: > 5 µM

Question: And the IC50 [6]?
Answer: > 5 µM

Question: What about the IC50 [7] of the same compound?
Answer: > 5 µM

Question: And the IC50 [8]?
Answer: > 5 µM

Question: What about the IC50 [9] of the same compound?
Answer: > 5 µM

Question: What about the IC50 [10] of the same compound?
Answer: > 5 µM

Question: And the IC50 [11]?
Answer: > 5 µM

Question: What about the IC50 [12] of the same compound?
Answer: > 5 µM

Question: And the IC50 [13]?
Answer: > 5 µM

Question: And the IC50 [14]?
Answer: > 5 µM

Question: And the IC50 [15]?
Answer: > 5 µM

Question: And the IC50 [16]?
Answer: > 5 µM

Question: And the IC50 [17]?
Answer: > 5 µM

Question: And the IC50 [18]?
Answer: > 5 µM

Question: What about the IC50 [19] of the same compound?
Answer: > 5 µM

Question: What about the IC50 [20] of the same compound?
Answer: > 5 µM

Question: And the IC50 [21]?
Answer: 1.72 µM

Question: And the IC50 [22]?
Answer: > 5 µM

Question: And the IC50 [23]?
Answer: > 5 µM

Question: What about the IC50 [24] of the same compound?
Answer: > 5 µM

Question: And the IC50 [25]?
Answer: > 5 µM

Question: `CC1=C2C[C@H]3[C@@H](CC=C4C[C@@H](O)CC[C@@]43C)[C@@H]2CC[C@]12O[C@@H]1C[C@H](C)CN[C@H]1[C@H]2C` [CYCLOPAMINE] was tested. Which IC50 [1] did it give?
Answer: > 16 µM

Question: What about the IC50 [2] of the same compound?
Answer: > 16 µM

Question: What about the IC50 [3] of the same compound?
Answer: > 16 µM

Question: And the IC50 [4]?
Answer: > 16 µM

Question: What about the IC50 [5] of the same compound?
Answer: > 16 µM

Question: And the IC50 [6]?
Answer: > 16 µM

Question: And the IC50 [7]?
Answer: > 16 µM

Question: And the IC50 [8]?
Answer: > 16 µM

Question: What about the IC50 [9] of the same compound?
Answer: > 16 µM

Question: And the IC50 [10]?
Answer: > 16 µM

Question: What about the IC50 [11] of the same compound?
Answer: > 16 µM

Question: What about the IC50 [12] of the same compound?
Answer: > 16 µM

Question: And the IC50 [13]?
Answer: > 16 µM

Question: And the IC50 [14]?
Answer: > 16 µM

Question: And the IC50 [15]?
Answer: > 16 µM

Question: What about the IC50 [16] of the same compound?
Answer: > 16 µM

Question: What about the IC50 [17] of the same compound?
Answer: > 16 µM

Question: What about the IC50 [18] of the same compound?
Answer: > 16 µM

Question: What about the IC50 [19] of the same compound?
Answer: > 16 µM

Question: And the IC50 [20]?
Answer: > 16 µM

Question: What about the IC50 [21] of the same compound?
Answer: > 16 µM

Question: And the IC50 [22]?
Answer: > 16 µM

Question: And the IC50 [23]?
Answer: > 16 µM

Question: What about the IC50 [24] of the same compound?
Answer: > 16 µM

Question: What about the IC50 [25] of the same compound?
Answer: > 16 µM

Question: How did the IC50 [1] turn out when `CS(=O)(=O)CCNCc1ccc(-c2ccc3ncnc(Nc4ccc(OCc5cccc(F)c5)c(Cl)c4)c3c2)o1` [LAPATINIB] was run?
Answer: > 2 µM

Question: What about the IC50 [2] of the same compound?
Answer: > 2 µM

Question: And the IC50 [3]?
Answer: > 2 µM

Question: What about the IC50 [4] of the same compound?
Answer: > 2 µM

Question: And the IC50 [5]?
Answer: > 2 µM

Question: And the IC50 [6]?
Answer: > 2 µM

Question: What about the IC50 [7] of the same compound?
Answer: > 2 µM

Question: And the IC50 [8]?
Answer: > 2 µM

Question: And the IC50 [9]?
Answer: > 2 µM

Question: What about the IC50 [10] of the same compound?
Answer: > 2 µM

Question: And the IC50 [11]?
Answer: > 2 µM

Question: What about the IC50 [12] of the same compound?
Answer: > 2 µM

Question: What about the IC50 [13] of the same compound?
Answer: > 2 µM

Question: What about the IC50 [14] of the same compound?
Answer: > 2 µM

Question: What about the IC50 [15] of the same compound?
Answer: > 2 µM

Question: And the IC50 [16]?
Answer: > 2 µM

Question: What about the IC50 [17] of the same compound?
Answer: > 2 µM

Question: And the IC50 [18]?
Answer: > 2 µM

Question: And the IC50 [19]?
Answer: > 2 µM

Question: What about the IC50 [20] of the same compound?
Answer: > 2 µM

Question: What about the IC50 [21] of the same compound?
Answer: > 2 µM

Question: What about the IC50 [22] of the same compound?
Answer: > 2 µM

Question: And the IC50 [23]?
Answer: > 2 µM

Question: What about the IC50 [24] of the same compound?
Answer: > 2 µM

Question: What about the IC50 [25] of the same compound?
Answer: > 2 µM

Question: How did the IC50 [1] turn out when `CCc1nc(N)nc(N)c1-c1ccc(Cl)cc1` [PYRIMETHAMINE] was run?
Answer: > 20 µM

Question: And the IC50 [2]?
Answer: > 20 µM

Question: And the IC50 [3]?
Answer: > 20 µM

Question: What about the IC50 [4] of the same compound?
Answer: 9.7 µM

Question: And the IC50 [5]?
Answer: > 20 µM

Question: What about the IC50 [6] of the same compound?
Answer: > 20 µM

Question: What about the IC50 [7] of the same compound?
Answer: > 20 µM

Question: And the IC50 [8]?
Answer: > 20 µM

Question: And the IC50 [9]?
Answer: > 20 µM

Question: And the IC50 [10]?
Answer: 6.54 µM

Question: And the IC50 [11]?
Answer: > 20 µM

Question: What about the IC50 [12] of the same compound?
Answer: 9.39 µM

Question: And the IC50 [13]?
Answer: > 20 µM

Question: What about the IC50 [14] of the same compound?
Answer: > 20 µM

Question: And the IC50 [15]?
Answer: > 20 µM

Question: What about the IC50 [16] of the same compound?
Answer: 4.33 µM

Question: What about the IC50 [17] of the same compound?
Answer: > 20 µM

Question: What about the IC50 [18] of the same compound?
Answer: > 20 µM

Question: And the IC50 [19]?
Answer: 6.06 µM

Question: And the IC50 [20]?
Answer: > 20 µM

Question: What about the IC50 [21] of the same compound?
Answer: > 20 µM

Question: And the IC50 [22]?
Answer: 3.84 µM

Question: What about the IC50 [23] of the same compound?
Answer: 1.37 µM

Question: And the IC50 [24]?
Answer: > 20 µM

Question: What about the IC50 [25] of the same compound?
Answer: 6.61 µM

Question: Which IC50 [1] does the source give for `O=C(/C=C/c1ccccc1)NC(NC(=S)Nc1cccc2cccnc12)C(Cl)(Cl)Cl` (stereo not given) [SALUBRINAL] here?
Answer: > 16 µM

Question: And the IC50 [2]?
Answer: > 16 µM

Question: What about the IC50 [3] of the same compound?
Answer: > 16 µM

Question: What about the IC50 [4] of the same compound?
Answer: > 16 µM

Question: What about the IC50 [5] of the same compound?
Answer: > 16 µM

Question: And the IC50 [6]?
Answer: > 16 µM

Question: What about the IC50 [7] of the same compound?
Answer: > 16 µM

Question: And the IC50 [8]?
Answer: > 16 µM

Question: And the IC50 [9]?
Answer: > 16 µM

Question: What about the IC50 [10] of the same compound?
Answer: > 16 µM

Question: And the IC50 [11]?
Answer: > 16 µM

Question: And the IC50 [12]?
Answer: > 16 µM

Question: What about the IC50 [13] of the same compound?
Answer: > 16 µM

Question: And the IC50 [14]?
Answer: > 16 µM

Question: And the IC50 [15]?
Answer: > 16 µM

Question: What about the IC50 [16] of the same compound?
Answer: > 16 µM

Question: And the IC50 [17]?
Answer: > 16 µM

Question: And the IC50 [18]?
Answer: > 16 µM

Question: And the IC50 [19]?
Answer: > 16 µM

Question: What about the IC50 [20] of the same compound?
Answer: > 16 µM

Question: And the IC50 [21]?
Answer: > 16 µM

Question: And the IC50 [22]?
Answer: > 16 µM

Question: What about the IC50 [23] of the same compound?
Answer: 9.71 µM

Question: What about the IC50 [24] of the same compound?
Answer: > 16 µM

Question: And the IC50 [25]?
Answer: > 16 µM
